Experimental data from paper PMC5428354, “Screening of a natural compound library identifies emodin, a natural compound from Rheum palmatum Linn that inhibits DPP4” (PeerJ, 2017).
Several values for one entry are separate records, joined by “and”; a condition that tells them apart may be missing. Identical values can stand only once. Like-named read-outs stand apart in the source and are kept apart here.

What was measured:
[1] = molecular target: T1, DPP9 (Homo sapiens, UniProt Q86TI2); assay: DPP9 activity assay (BPS Bioscience kit); format: biochemical; details: tested at 100 µM
T1 construct: purchased BPS Bioscience 800209
Experimental: A DPP9 assay kit was purchased from BPS Bioscience (Cat# 800209), and the assay protocol was followed to test for inhibitory activity against DPP9. Briefly, DPP substrate 1 was diluted to make a 100 µM stock solution, and DPP9 protein was diluted in DPP assay buffer to 2 ng/µl (20 ng/reaction). For the tested compounds, 10 µl of diluted DPP9 protein, 5 µl of diluted DPP substrate 1, 84 µl of DPP assay buffer and 1 µl of inhibitor were added into the assay system for a total volume of 100 µl. […]

[2] = Blood glucose levels after oral emodin; format: in vivo, mice; design: Blood glucose: unit not given here; details: 30 mg/kg P.O.; for Blood glucose: ob/ob mice, individual animals
Experimental: Balb/c mice (male, six weeks) and ob/ob (-/-) mice (male, six weeks) were purchased from the Shanghai SLAC Laboratory Animal Co. Ltd. (Shanghai, China) and maintained in an air-conditioned room at 20–25 °C under a 12 h dark/light cycle and fed certified standard chow and tap water ad libitum. Experiments were conducted in compliance with the Guide for the Care and Use of Laboratory Animals. Mice were orally administered with emodin (3, 10, or 30 mg /kg) and had their blood collected at 0.5, 1, 2, and 4 h after emodin treatment. The samples were subjected to plasma isolation immediately after collection. Plasma samples were tested for DPP4 activity with a DPP4-Glo assay kit (Promega, Beijing, China) according to the manufacturer’s protocol. The experimental protocol was approved by Animal Care and Use Committee of Xiamen University(XM2015030514).
To test the inhibitory activity of emodin on DPP4 in vivo, an animal experiment was conducted by oral administration of emodin (3, 10 and 30 mg/kg, P.O., n = 5) to Balb/c mice, followed by plasma collection at different time points to measure DPP4 activity in the blood. Plasma samples were collected at 0, 0.5, 1, 2 and 4 h after the oral dose of emodin, and plasma DPP4 activity was measured with a DPP4-Glo assay kit. […] The lowest does of emodin (3 mg/kg) decreased plasma DPP4 activity from baseline, although these levels rebounded after 1 h, whereas 10 and 30 mg/kg doses of emodin decreased plasma DPP4 activity and maintained the lower levels until 2 h post-treatment (Fig. 4). This dose-dependent manner is probably due to the pharmacokinetics of emodin, and 10 and 30 mg/kg have maximized the pharmacokinetic coverage, while 3 mg/kg emodin is only sufficient to maintain 1 h DPP4 inhibition in vivo. In the subsequent experiment, emodin (30 mg/kg, P.O.) was administered on Balb/C mice (n = 5) or ob/ob (-/-) mice (n = 5). The DPP4 activity, blood glucoselevels and GLP-1 activity were tested 0, 1, 2, 4, 8 h after administration. […] This downregulation maintained 2 h in Balb/C mice, and 4 h in ob/ob (-/-) mice, which rebounded afterwards (Fig. 5A). […] Plasma GLP-1 activity was also measured.

[3] = tested on: GLP-1; assay: Plasma GLP-1 activity after oral emodin; format: in vivo, mice; design: GLP-1: unit not given here; details: 30 mg/kg P.O.; for GLP-1: ob/ob mice, individual animals
Experimental: In the subsequent experiment, emodin (30 mg/kg, P.O.) was administered on Balb/C mice (n = 5) or ob/ob (-/-) mice (n = 5). […] This downregulation maintained 2 h in Balb/C mice, and 4 h in ob/ob (-/-) mice, which rebounded afterwards (Fig. 5A). […] Plasma GLP-1 activity was also measured.

[4] = molecular target: T2, plasma DPP4 activity (Mus musculus, UniProt P28843); assay: Plasma DPP4 activity after oral emodin (DPP4-Glo assay kit); format: in vivo, mice; details: for plasma DPP4 activity, raw signal / DPP4 activity, raw signal: individual animals; for DPP4 activity, raw signal: C57BL/6 (head)
T2 construct: followed by plasma collection at different time points to measure DPP4 activity in the blood; from tissue; host or cells: mouse plasma (Balb/c and ob/ob mice)

[5] = tested on: F344/N rats; design: method as in National Toxicology Program, 2001; Wang & Chung, 1997; details: male F344/N rats, 280–2,500 ppm; ref National Toxicology Program, 2001; Wang & Chung, 1997; cited from earlier work
[6] = tested on: B6C3F1 mice; design: method as in National Toxicology Program, 2001; Wang & Chung, 1997; details: 280–2,500 ppm, ref National Toxicology Program, 2001, Wang & Chung, 1997, cited from earlier work
[7] = molecular target: DPP4 (Homo sapiens, UniProt P27487); assay: DPP4 activity assay (DPP4 inhibitor screening assay kit, Cayman); format: biochemical; design: purchased Cayman Chemical, Ann Arbor, MI, USA; details: for remaining activity at 10 µM: control mean 100.0;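 on all read-outs here: fluorescence read at excitation 360 nm and emission 460 nm after the enzyme reaction ran 30 min at 37 °C in a 96-well plate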
DPP4, sequence (P27487 whole entry): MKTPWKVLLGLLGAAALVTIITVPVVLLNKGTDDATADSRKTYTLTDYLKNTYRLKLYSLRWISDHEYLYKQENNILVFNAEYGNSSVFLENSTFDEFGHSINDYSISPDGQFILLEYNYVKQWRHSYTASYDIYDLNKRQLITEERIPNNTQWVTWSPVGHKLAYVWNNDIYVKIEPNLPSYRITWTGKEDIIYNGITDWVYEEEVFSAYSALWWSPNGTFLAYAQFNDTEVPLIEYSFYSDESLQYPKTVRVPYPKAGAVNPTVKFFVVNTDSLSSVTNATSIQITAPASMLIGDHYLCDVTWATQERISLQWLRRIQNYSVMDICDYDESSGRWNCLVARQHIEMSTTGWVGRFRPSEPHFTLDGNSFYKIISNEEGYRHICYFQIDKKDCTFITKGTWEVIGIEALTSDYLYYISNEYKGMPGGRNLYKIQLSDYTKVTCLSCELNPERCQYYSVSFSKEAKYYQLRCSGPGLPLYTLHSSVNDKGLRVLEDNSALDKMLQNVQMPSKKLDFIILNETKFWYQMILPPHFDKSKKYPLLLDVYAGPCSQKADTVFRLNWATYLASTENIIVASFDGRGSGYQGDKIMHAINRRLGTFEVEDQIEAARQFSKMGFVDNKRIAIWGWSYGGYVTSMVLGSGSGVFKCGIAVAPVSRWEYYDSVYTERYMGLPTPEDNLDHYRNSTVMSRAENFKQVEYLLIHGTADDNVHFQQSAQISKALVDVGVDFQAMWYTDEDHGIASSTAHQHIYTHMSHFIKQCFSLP

T2 sequence (P28843 37-760 limits assumed): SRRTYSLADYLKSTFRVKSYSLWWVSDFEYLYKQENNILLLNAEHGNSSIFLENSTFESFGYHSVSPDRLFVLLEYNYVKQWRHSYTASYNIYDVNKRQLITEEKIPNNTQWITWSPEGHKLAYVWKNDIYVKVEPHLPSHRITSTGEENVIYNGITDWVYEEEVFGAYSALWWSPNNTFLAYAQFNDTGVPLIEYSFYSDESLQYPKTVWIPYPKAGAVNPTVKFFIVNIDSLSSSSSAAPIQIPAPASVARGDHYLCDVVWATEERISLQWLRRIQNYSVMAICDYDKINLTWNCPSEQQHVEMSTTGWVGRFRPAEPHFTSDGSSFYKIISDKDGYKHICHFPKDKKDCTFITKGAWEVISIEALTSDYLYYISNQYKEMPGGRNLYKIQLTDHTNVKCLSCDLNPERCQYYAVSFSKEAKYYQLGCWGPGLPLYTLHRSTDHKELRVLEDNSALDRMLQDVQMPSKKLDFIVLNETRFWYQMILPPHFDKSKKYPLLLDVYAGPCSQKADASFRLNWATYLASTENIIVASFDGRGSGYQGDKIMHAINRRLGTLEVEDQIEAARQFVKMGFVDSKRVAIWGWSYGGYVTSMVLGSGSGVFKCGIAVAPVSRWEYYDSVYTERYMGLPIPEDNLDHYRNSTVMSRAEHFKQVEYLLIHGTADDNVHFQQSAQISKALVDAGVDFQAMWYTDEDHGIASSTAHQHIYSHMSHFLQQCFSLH
T1 sequence (Q86TI2 whole entry): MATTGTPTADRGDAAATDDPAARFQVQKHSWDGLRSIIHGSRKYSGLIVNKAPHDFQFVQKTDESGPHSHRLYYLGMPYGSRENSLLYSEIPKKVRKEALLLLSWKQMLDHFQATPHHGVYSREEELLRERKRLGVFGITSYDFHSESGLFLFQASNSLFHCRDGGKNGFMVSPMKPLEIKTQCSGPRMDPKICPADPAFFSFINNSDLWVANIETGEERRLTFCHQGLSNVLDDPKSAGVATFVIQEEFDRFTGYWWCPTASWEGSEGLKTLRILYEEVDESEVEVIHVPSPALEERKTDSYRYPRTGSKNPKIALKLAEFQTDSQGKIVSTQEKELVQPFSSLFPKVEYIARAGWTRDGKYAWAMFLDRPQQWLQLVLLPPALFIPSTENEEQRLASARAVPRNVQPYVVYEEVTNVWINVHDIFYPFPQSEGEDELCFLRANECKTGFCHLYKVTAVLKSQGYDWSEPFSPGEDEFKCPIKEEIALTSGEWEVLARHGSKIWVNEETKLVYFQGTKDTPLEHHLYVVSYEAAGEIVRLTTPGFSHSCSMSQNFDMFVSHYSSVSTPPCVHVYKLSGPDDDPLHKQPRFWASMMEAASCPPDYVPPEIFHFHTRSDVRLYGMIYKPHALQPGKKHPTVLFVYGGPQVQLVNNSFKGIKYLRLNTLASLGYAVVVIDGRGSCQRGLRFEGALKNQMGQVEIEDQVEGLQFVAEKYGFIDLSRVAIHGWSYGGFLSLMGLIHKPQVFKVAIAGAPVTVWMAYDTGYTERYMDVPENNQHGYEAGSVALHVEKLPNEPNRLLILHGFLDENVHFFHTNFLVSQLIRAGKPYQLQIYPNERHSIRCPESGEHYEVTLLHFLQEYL

For `Cc1cc(O)c2c(c1)C(=O)c1cc(O)cc(O)c1C2=O` [Emodin], the “activity against DPP9” value [1] was “without inhibiting”, the “effect on blood glucose levels from baseline” value ([2]; both Balb/C mice and ob/ob (-/-) mice) was “significantly downregulated” and the “time for which downregulation of blood glucose was maintained” value ([2]; both Balb/C mice and ob/ob (-/-) mice, baseline again at 8 h) was 4 h. The Blood glucose ([2]; 0 hours (baseline)) was 18.6 and 13.3 and 11.5 and 12.1 and 14.4, the Blood glucose ([2]; 1 hours) was 9.4 and 11.3 and 13.1 and 10.9 and 12 and the Blood glucose ([2]; 2 hours) was 11 and 9.2 and 8.1 and 9.5 and 10.9. For the same compound, the Blood glucose ([2]; 4 hours) was 8 and 10.3 and 8.2 and 7.3 and 9.2, the Blood glucose ([2]; 8 hours) was 14.7 and 14.2 and 13.9 and 12.8 and 13.1 and the “effect on plasma GLP-1 activity” value ([3]; Balb/C and ob/ob (-/-) mice) was “marginal effect”. For the same compound, the GLP-1 ([3]; 0 hours (baseline)) was 1.6192 and 1.6714 and 1.7758 and 1.3843 and 3.4984, the GLP-1 ([3]; 1 hours) was 2.9503 and 1.4365 and 2.8459 and 1.8541 and 2.8981 and the GLP-1 ([3]; 2 hours) was 3.5245 and 3.4201 and 0.5491 and 2.4022 and 2.2456. The GLP-1 ([3]; 4 hours) was 0.9667 and 2.1673 and 1.2538 and 1.5148 and 2.9503, the GLP-1 ([3]; 8 hours) was 3.655 and 0.784 and 1.2277 and 3.1852 and the “time for which plasma DPP4 activity stayed decreased” value ([4]; 3 mg/kg P.O., Balb/c mice, rebounded afterwards) was 1 h. The “plasma DPP4 activity, raw signal” value ([4]; 3 mg/kg P.O., time 0 h (baseline), Balb/c mice) was 200500 and 223040 and 210853, the “plasma DPP4 activity, raw signal” value ([4]; 3 mg/kg P.O., time 0.5 h, Balb/c mice) was 157120 and 186480 and 184560 and the “plasma DPP4 activity, raw signal” value ([4]; 3 mg/kg P.O., time 2 h, Balb/c mice) was 291827 and 237493 and 317253. The “plasma DPP4 activity, raw signal” value ([4]; 3 mg/kg P.O., time 4 h, Balb/c mice) was 377573 and 331360 and 321880, the “plasma DPP4 activity, raw signal” value ([4]; 10 mg/kg P.O., time 0 h (baseline), Balb/c mice) was 349733 and 267840 and 314147 and the “plasma DPP4 activity, raw signal” value ([4]; 10 mg/kg P.O., time 1 h, Balb/c mice) was 158860 and 133520 and 164280. For the same compound, the “plasma DPP4 activity, raw signal” value ([4]; 10 mg/kg P.O., time 2 h, Balb/c mice) was 158760 and 116813 and 222440, the “plasma DPP4 activity, raw signal” value ([4]; 10 mg/kg P.O., time 4 h, Balb/c mice) was 367160 and 355600 and 350787 and the “time for which downregulation of DPP4 activity was maintained” value ([4]; 30 mg/kg P.O., Balb/C mice, n = 5) was 2 h. For the same compound, the “DPP4 activity, raw signal” value ([4]; 30 mg/kg P.O., 0 hours (baseline)) was 2962300 and 3555100 and 2704100 and 2803100 and 3111100, the “DPP4 activity, raw signal” value ([4]; 30 mg/kg P.O., 1 hours) was 2755900 and 3040800 and 2268700 and 2388700 and 2836800 and the “DPP4 activity, raw signal” value ([4]; 30 mg/kg P.O., 2 hours) was 3055900 and 3015200 and 2510000 and 2257000 and 2971200. The “DPP4 activity, raw signal” value ([4]; 30 mg/kg P.O., 4 hours) was 2708000 and 3031400 and 2814800 and 2664500 and 2844400, the “DPP4 activity, raw signal” value ([4]; 30 mg/kg P.O., 8 hours) was 3130600 and 3310000 and 2020300 and 3224400 and 3166700 and the “effect on DPP4 activity” value ([4]; 30 mg/kg P.O., both Balb/C mice and ob/ob (-/-) mice) was “significant downregulation”. For the same compound, the “time for which downregulation of DPP4 activity was maintained” value ([4]; 30 mg/kg P.O., ob/ob (-/-) mice, n = 5) was 4 h, the “plasma DPP4 activity, raw signal” value ([4]; 30 mg/kg P.O., time 0 h (baseline), Balb/c mice) was 290800 and 216573 and 224480 and the “plasma DPP4 activity, raw signal” value ([4]; 30 mg/kg P.O., time 0.5 h, Balb/c mice) was 175387 and 222147 and 170307. The “plasma DPP4 activity, raw signal” value ([4]; 30 mg/kg P.O., time 1 h, Balb/c mice) was 159040 and 152000 and 181707, the “effect on plasma DPP4 activity” value ([4]; 3, 10 and 30 mg/kg, P.O., Balb/c mice, n = 5) was “decreased the plasma DPP4 activity in a dose-dependent manner” and the “time until which lower plasma DPP4 activity was maintained” value ([4]; 10 and 30 mg/kg P.O., Balb/c mice) was 2 h. For the same compound, the carcinogenic activity [5] was “no evidence of carcinogenic activity”, the carcinogenic activity ([6]; female B6C3F1 mice) was “no evidence of carcinogenic activity” and the nephropathy ([6]; female mice) was “increased incidences”. For the same compound, the renal tubule pigmentation ([6]; male and female mice) was “increased incidences”, the inhibition at 10 µM ([7]; 10 µM, library screen) was > 50% and the remaining activity at 10 µM ([7]; 0.5 h, 10 µM, Figure 1A raw data, read-out: DPP4 activity in library screen, Exp 1) was 22%. For the same compound, the remaining activity at 10 µM ([7]; 0.5 h, 10 µM, Figure 1A raw data, read-out: DPP4 activity in library screen, Exp 2) was 22.6%, the remaining activity at 10 µM ([7]; 0.5 h, 10 µM, Figure 1A raw data, read-out: DPP4 activity in library screen, Exp 3) was 41.2% and the remaining activity at 10 µM ([7]; 0.5 h, 10 µM, mean of Exp 1-3, read-out: DPP4 activity in library screen, Mean) was 28.6%. It also gave a remaining activity at 0.39 µM ([7]; 0.5 h, Emodin 0.39 μM, Exp 1-4) of 100%, a remaining activity at 0.78125 µM ([7]; 0.5 h, Emodin 0.78125 μM, Exp 1-4) of 104% and a remaining activity at 1.5625 µM ([7]; 0.5 h, Emodin 1.5625 μM, Exp 1-4) of 97.8%. It also gave a remaining activity at 3.125 µM ([7]; 0.5 h, Emodin 3.125 μM, Exp 1-4) of 83.5%, a remaining activity at 12.5 µM ([7]; 0.5 h, Emodin 12.5 μM, Exp 1-4) of 37% and a remaining activity at 25 µM ([7]; 0.5 h, Emodin 25 μM, Exp 1-4) of 25.1%. For the same compound, the remaining activity at 100 µM ([7]; 0.5 h, Emodin 100 μM, Exp 1-4) was 3.77%, the Ki ([7]; DPP4, means ± SE) was 0.85 ± 0.06 µM and the IC50 ([7]; in vitro, means ± SE, read-out: IC50 of DPP4 Inhibition) was 5.7 µM and 5.76 µM.
